Key:
Type in all cases: cell-based
[1] = test system: human uroepithelial cells
[2] = test system: human uroepithelial cells; remark: listed apart in the source
[3] = test system: human uroepithelial cells; remark: listed apart in the source

Compound | Typical Results [1] | increase vs saline in the amount of BoNT/A that permeated the in vitro urothelium [2] [fold] | penetration of fluorescent gelatin, RFU relative to untreated control [3] [%]
CCOCCOCCO [Diethylene glycol mono-ethyl ether] | No Effect | – | –
Protamine sulfate | Inhibited | – | –
OCc1ccccc1 [Benzyl Alcohol] | Slight Increase (1% at 2 | – | –
Poly-L-lysine Hydrobromide | Increase (Dose response) | – | –
Nonoxynol 9 | Increase (Dose response) | 3 | –
octyl phenol ethoxylate [Triton-X100] | Increase (Dose response) | 3.6 | –
CCCCCCCC/C=C\CCCCCCCC(=O)OCCOCC(OCCO)C1OCC(OCCO)C1OCCO (stereo not shown) [Tween 80] | Increase (Dose response) | – | –
Poly-L-Arginine | Inhibited | – | –
O=C(O)CN(CCN(CC(=O)O)CC(=O)O)CC(=O)O [EDTA] | Increase | – | 300
Benzalkonium bromide | No Effect | – | –
